Among the test systems are DU-145; RXF 393; M14; OVCAR-4; NCI-H460; U-251; HOP-62; BT-549; IGROV-1; T47D; SF-539; SN12C; HCT-116; HT-29; ACHN; SF-295; NCI-H522; MDA-MB-231; RPMI-8226; SK-MEL-2.
Common to all, as to experiment: inhibition of tumour cell growth, NCI panel, 48 h

Each structure is given as a SMILES string.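 Briefly, cells in 96-well plates were exposed to five compound concentrations for 48 h, and endpoints were estimated by linear interpolation. GI50 is the concentration that inhibits growth by half.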 Calls of active or inactive are those of the source. No stated cut-off is given here; in the data, active = GI50 up to about 1.1 µM and inactive = higher.

With `C[C@]12CC[C@H](O)CC1=CC[C@@H]1C2CC[C@]2(C)c3n[nH]nc3CC12` (stereo not given in full), the GI50 in the test with DU-145, with RXF 393, in the test on M14, in the test with OVCAR-4, in the test on NCI-H460 and with U-251 was > 100 µM (inactive) in each case. Further, the GI50 with HOP-62, with BT-549, in the test on IGROV-1, with T47D, in the test with SF-539 and with SN12C was > 100 µM (inactive) each time. The GI50 in the test with HCT-116, in the test on HT-29, in the test with ACHN, in the test on SF-295, in the test on NCI-H522 and in the test on MDA-MB-231 was > 100 µM (inactive) throughout.

`O=C(CSc1nnc(SCC(=O)NN=C2CCCCC2)s1)NN=C1CCCCC1`: the GI50 in the test with DU-145, with RXF 393, in the test on M14, in the test on OVCAR-4, in the test on NCI-H460 and with U-251 was > 100 µM (inactive) each time. Moreover, the GI50 with HOP-62, in the test with BT-549, in the test with IGROV-1, in the test with T47D, in the test on SF-539 and with RPMI-8226 was > 100 µM (inactive) each time. Besides, the GI50 in the test on SN12C, in the test with HCT-116, in the test on HT-29, in the test with ACHN, with SF-295 and in the test with NCI-H522 was > 100 µM (inactive) throughout. In addition, in the test with MDA-MB-231, the GI50 is > 100 µM (inactive).

For `COc1ccc(NC(=O)C(=O)Cc2nc3ccc(C(=O)c4ccccc4)cc3nc2O)c([N+](=O)[O-])c1`, the GI50 with DU-145 is 27.5 µM (inactive); in the test on RXF 393, 23.1 µM (inactive); in the test with M14, 35.6 µM (inactive); in the test on OVCAR-4 it was 43.7 µM (inactive); with NCI-H460 it was 32.1 µM (inactive); with U-251, 41.9 µM (inactive). Also, the GI50 was 34.6 µM (inactive) in the test with HOP-62; 55.1 µM (inactive) with SK-MEL-2; 26.9 µM (inactive) with BT-549; 17.6 µM (inactive) in the test on IGROV-1; 17.2 µM (inactive) in the test on T47D; 33 µM (inactive) in the test with SF-539. The GI50 is 35.7 µM (inactive) in the test on SN12C; 28.1 µM (inactive) in the test on HCT-116; 14.9 µM (inactive) in the test with HT-29; 43.6 µM (inactive) in the test with ACHN; 31.8 µM (inactive) with SF-295; 12.8 µM (inactive) in the test with NCI-H522. For the same compound, in the test with MDA-MB-231, the GI50 was 23 µM (inactive).

Consider `Cn1c(=O)c2c(nc3n(CC(O)CCl)c(=O)ccn23)n(C)c1=O` (stereo not given), for which the GI50 with DU-145 was 28.8 µM (inactive); in the test with RXF 393, > 100 µM (inactive); in the test on M14 it was 52.7 µM (inactive); in the test on OVCAR-4 it was 61.8 µM (inactive); in the test with NCI-H460, 29.9 µM (inactive); with U-251, 44 µM (inactive). Also, the GI50 was 46.9 µM (inactive) in the test on HOP-62; > 100 µM (inactive) in the test with SK-MEL-2; > 100 µM (inactive) in the test with BT-549; 20.8 µM (inactive) in the test on IGROV-1; 35.7 µM (inactive) with T47D; 46.7 µM (inactive) in the test with SF-539. For the same compound, the GI50 with RPMI-8226 was 19.5 µM (inactive); in the test on SN12C, 18.3 µM (inactive); with HCT-116, 18.2 µM (inactive); with HT-29, 30.8 µM (inactive); in the test with ACHN, 15.4 µM (inactive); in the test on SF-295, 47.5 µM (inactive). Also, the GI50 in the test with NCI-H522 is 16.6 µM (inactive); in the test with MDA-MB-231 it was 31.3 µM (inactive).

For `C=CCC1(O)c2cccc(O)c2C(=O)c2c(O)cccc21`, the GI50 with DU-145 is 29.9 µM (inactive); in the test on RXF 393, 15.9 µM (inactive); with M14 it was 20.8 µM (inactive); in the test on OVCAR-4, 28.4 µM (inactive); with NCI-H460, 31.8 µM (inactive); in the test with U-251, 23.6 µM (inactive). The GI50 in the test on HOP-62 was 80.2 µM (inactive); in the test with SK-MEL-2, 17.3 µM (inactive); in the test with BT-549, 29.6 µM (inactive); with IGROV-1, 45.9 µM (inactive); with T47D, 23.3 µM (inactive); with SF-539, 57.8 µM (inactive). Further, the GI50 was 31.7 µM (inactive) with RPMI-8226; 23.1 µM (inactive) in the test on HCT-116; 22.6 µM (inactive) in the test on HT-29; 32.5 µM (inactive) in the test with ACHN; 27.1 µM (inactive) with SF-295; 23.8 µM (inactive) with NCI-H522. Also, in the test with MDA-MB-231, the GI50 is 33.5 µM (inactive).

As for `COC(=O)c1c([N+](=O)[O-])ncn1[C@H]1OC[C@@H](OC(C)=O)[C@@H](OC(C)=O)[C@@H]1OC(C)=O`, the GI50 in the test with DU-145, in the test on RXF 393, in the test on M14, in the test with OVCAR-4, in the test on NCI-H460 and with U-251 was > 100 µM (inactive) throughout. Further, the GI50 with HOP-62, in the test with BT-549, with IGROV-1, in the test on T47D, with SF-539 and in the test on SN12C was > 100 µM (inactive) in each case. For the same compound, the GI50 in the test with HCT-116, with HT-29, with ACHN, in the test with SF-295, in the test on NCI-H522 and with MDA-MB-231 was > 100 µM (inactive) each time.

For the compound `COc1ccc2c(c1)CC[C@@H]1C2CC[C@]2(C)C(=O)N(C)C(=O)CC12` (stereo not given in full), the GI50 in the test with DU-145 was > 100 µM (inactive); with RXF 393, 38.1 µM (inactive); in the test with M14, > 100 µM (inactive); in the test on OVCAR-4 it was > 100 µM (inactive); with NCI-H460, > 100 µM (inactive); in the test with U-251, 75.9 µM (inactive). Also, the GI50 in the test on HOP-62 was 38.9 µM (inactive); in the test with BT-549, > 100 µM (inactive); with IGROV-1, > 100 µM (inactive); in the test on T47D, > 100 µM (inactive); in the test on SF-539, > 100 µM (inactive); in the test with SN12C, > 100 µM (inactive). Besides, the GI50 is > 100 µM (inactive) in the test on HCT-116; > 100 µM (inactive) in the test with HT-29; > 100 µM (inactive) with ACHN; 62.7 µM (inactive) in the test with SF-295; > 100 µM (inactive) in the test with NCI-H522; > 100 µM (inactive) with MDA-MB-231.

On to `CC(=N\N=C\c1ccccn1)/C(C)=N/N=C(C)/C(C)=N/N=C/c1ccccn1`, for which the GI50 with DU-145, with RXF 393, in the test on M14, in the test with OVCAR-4, in the test on NCI-H460 and in the test on U-251 was > 100 µM (inactive) each time. The GI50 in the test on HOP-62, with SK-MEL-2, with BT-549, with IGROV-1, with T47D and in the test with SF-539 was > 100 µM (inactive) in each case. Also, the GI50 with RPMI-8226, in the test with SN12C, with HCT-116, with HT-29, with ACHN and in the test on SF-295 was > 100 µM (inactive) throughout. For the same compound, the GI50 with NCI-H522 and with MDA-MB-231 was > 100 µM (inactive) in each case.

As to `COc1ccc(C2(O)c3ccccc3C(=O)N(C)C2(O)c2ccc(OC)cc2)cc1` (stereo not given), the GI50 in the test with DU-145 was > 100 µM (inactive); in the test on RXF 393 it was > 100 µM (inactive); with M14, 53.3 µM (inactive); with OVCAR-4, 25.2 µM (inactive); with NCI-H460, 35.2 µM (inactive); with U-251, 52.7 µM (inactive). Also, the GI50 in the test with HOP-62 is 70.8 µM (inactive); in the test with SK-MEL-2 it was 43.4 µM (inactive); in the test on BT-549, 34.3 µM (inactive); in the test with IGROV-1 it was 28.6 µM (inactive); with T47D, 52.4 µM (inactive); in the test on SF-539, > 100 µM (inactive). In addition, the GI50 in the test with RPMI-8226 is > 100 µM (inactive); in the test on SN12C it was > 100 µM (inactive); with HCT-116 it was 37.8 µM (inactive); with HT-29, 28.5 µM (inactive); with SF-295, 32.9 µM (inactive); with NCI-H522, 16.1 µM (inactive). Also, in the test with MDA-MB-231, the GI50 was > 100 µM (inactive).

For the compound `COc1cc(/C=C\c2ccc(SC)cc2)cc(OC)c1OC`, the GI50 is 0.043 µM (active) in the test with DU-145; 0.0117 µM (active) in the test with RXF 393; 0.0182 µM (active) in the test on M14; 10.7 µM (inactive) in the test on OVCAR-4; 0.0171 µM (active) in the test with NCI-H460; 0.0845 µM (active) in the test on U-251. Besides, the GI50 in the test on HOP-62 was 0.0175 µM (active); with SK-MEL-2 it was 0.0188 µM (active); in the test on BT-549 it was < 0.01 µM (active); with IGROV-1 it was 0.0632 µM (active); in the test with T47D, 19.7 µM (inactive); in the test on SF-539 it was < 0.0145 µM (active). In addition, the GI50 with RPMI-8226 is 0.0331 µM (active); with SN12C, 0.0667 µM (active); in the test on HCT-116, < 0.0158 µM (active); in the test on HT-29, < 0.0137 µM (active); with ACHN, 0.467 µM (active); with SF-295, 0.0119 µM (active). The GI50 in the test on NCI-H522 was 0.0133 µM (active); with MDA-MB-231, 0.0698 µM (active).

Values taken from ChEMBL document CHEMBL1201862, “PubChem BioAssay data set” (2004).
